Data published in patent US8981094B2, “Piperidine/piperazine derivatives” (Janssen Pharmaceutica N.V., priority 2007, dated 2015).

biological target: T1, human DGAT1 (Homo sapiens, UniProt O75907); assay: Inhibition of DGAT1 activity, FlashPlate assay with DGAT1 membrane preparations and substrate micelles; type: biochemical; conditions: pIC50 = -logIC50, IC50 values expressed in M
T1 construct: FLAG (N); made in house; host or cells: SF9 insect cells (pFastBac baculovirus); total cell membranes
T1 sequence (O75907 1-488): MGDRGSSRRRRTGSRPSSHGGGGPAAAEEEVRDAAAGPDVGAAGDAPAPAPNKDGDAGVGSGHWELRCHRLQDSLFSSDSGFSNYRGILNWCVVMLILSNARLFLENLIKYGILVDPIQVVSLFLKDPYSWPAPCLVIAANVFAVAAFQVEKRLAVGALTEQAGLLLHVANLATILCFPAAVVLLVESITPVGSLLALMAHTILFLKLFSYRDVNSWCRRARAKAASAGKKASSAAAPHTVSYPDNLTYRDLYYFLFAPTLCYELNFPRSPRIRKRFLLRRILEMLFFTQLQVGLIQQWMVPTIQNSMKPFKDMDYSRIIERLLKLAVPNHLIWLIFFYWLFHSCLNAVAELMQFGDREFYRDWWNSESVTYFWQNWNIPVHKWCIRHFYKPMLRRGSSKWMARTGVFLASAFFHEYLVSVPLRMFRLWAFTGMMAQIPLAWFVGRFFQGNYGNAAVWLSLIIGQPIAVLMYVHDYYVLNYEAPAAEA
Description: A) Measurement of Inhibition of DGAT1 Activity by the Present Compounds
The inhibiting activity of the present compounds on DGAT1 activity was screened in a single well procedure assay using DGAT1 comprising membrane preparations and DGAT1 substrate comprising micelles and determining formed radio-active triacylglycerol coming in close proximity of a flashplate surface by radio luminescence.
Said assay is described in full detail in WO2006/067071, the content of which is incorporated herein by reference.
By DGAT1 activity is meant the transfer of coenzyme A activated fatty acids to the 3-position of 1,2-diacylglycerols, thus forming a triglyceride molecule, by enzyme DGAT1.
human DGAT1 (NM012079.2) was cloned into the pFastBac vector, containing translation start, a FLAG-tag at the N-terminus as described in literature and a viral Kozak sequence (AAX) preceding the ATG to improve expression in insect cells. Expression was done as described in literature (Cases, S., Smith, S. J., Zheng, Y., Myers H. M., Lear, S. R., Sande, E., Novak, S., Collins, C., Welch, C. B., Lusis, A. J., Erickson, S. K. and Farese, R. V. (1998) Proc. Natl. Acad. Sci. USA 95, 13018-13023.) using SF9 cells.
72 h transfected SF9 cells were collected by centrifugation (13000 rpm-15 min-4° C.) and lysed in 2×500 ml lysisbuffer (0.1M Sucrose, 50 mM KCl, 40 mM KH2PO4, 30 mM EDTA pH 7.2. Cells were homogenized by cell disruptor. After centrifugation 1380 rpm-15 min-4° C. (SN discarded), pellet was resuspended in 500 ml lysisbuffer and total cell membranes collected by ultracentrifugation at 34000 rpm(100 000 g) for 60 min (4° C.). The collected membranes were resuspended in lysis buffer, divided in aliquots and stored with 10% glycerol at −80° C. until use.
Add 1 ml dioleoyl-sn-glycerol (10 mg/ml) to 10 ml of L-α-phosphatidylcholine (1 mg/ml) and 10 ml of L-α-phosphatidyl-L-serine (1 mg/ml) in a thick glass recipient. Evaporate under nitrogen and put on ice for 15 minutes. Reconstitute in 10 ml Tris/HCl (10 mM, pH 7.4) by sonication on ice. The sonification process consists of sonification cycles of 10 seconds in the sonification bath followed by 10 seconds cool down on ice and repeating this sonification cycle till a homogeneous solution is obtained (takes about 15 minutes). The thus obtained micelles are stored at −20° C. till later use and contain DAG at a final concentration of 1.61 mM.
c) Substrate mix (for 1 384 well plate=3840 μl) • 612 μl micelles stock (51 μM final) • 16.6 μl oleoylCoA 9.7 mM • 23 μl [^3H]-oleoylCoA (49 Ci/mmol, 500 μCi/ml) • 3188.4 μl Tris pH 7.4, 10 mM
d) Enzyme mix (for 1 384 well plate=3520 μl) (5 μg/ml) • Add 11.73 μl of DGAT membrane stock (1500 μg/ml stock) to 3508 μl assay buffer.
e) Stop mix (for 1 384 well plate=7.68 ml) (250 mM) • Add 384 μl of N-ethylmaleimide (5M) to 3.456 ml DMSO 100%, and further dilute 3.84 ml of said solution with 3.84 ml DMSO 10%.
DGAT activity in membrane preparations was assayed in 50 mM Tris-HCl (pH 7.4), 150 mM MgCl2, 1 mM EDTA and 0.2% BSA, containing 50 μM DAG, 32 μg/ml PC/PS and 8.4 μM [^3H]-oleoylCoA (at a specific activity of 30 nCi/well) in a final volume of 50 μl in 384-well format using the red shifted Basic Image FlashPlate™ (Perkin Elmer Cat.No. SMP400).
In detail, 10 μl enzyme mix and 10 μl substrate mix were added to 30 μl of assay buffer, optionally in the presence of 1 μl DMSO (blank and controls) or 1 μl of the compound to be tested. This reaction mixture was incubated for 120 minutes at 37° C. and the enzymatic reaction stopped by adding 20 μl of the stop mix. The plates were sealed and the vesicles allowed to settle overnight at room temperature. Plates were centrifuged for 5 minutes at 1500 rpm and measured in Leadseeker. […]

| IC50 | SMILES |
| --- | --- |
| 35.5 nM | CC(C)CC(NC(=O)OC(C)(C)C)C(=O)Nc1ccc(C2CCN(C(=O)Nc3c(Cl)cccc3Cl)CC2)cc1 (single isomer, unassigned) [Compound 33] |
| 2.14 nM | CC(O)c1cc(Cl)c(NC(=O)N2CCN(c3ccc(NC(=O)CCCc4ccccc4)cc3)CC2)c(Cl)c1 (single isomer, unassigned) [Compound 270] |
| 3.24 nM | CC(O)c1cc(Cl)c(NC(=O)N2CCN(c3ccc(NC(=O)CCCc4ccccc4)cc3)CC2)c(Cl)c1 (single isomer, unassigned) [Compound 271] |
| 2880 nM | CC(=O)NC1(C(=O)Nc2ccc(N3CCN(C(=O)Nc4c(Cl)cccc4Cl)CC3)cc2)CCCC1 [Compound 2] |
| 46.8 nM | O=C(CCN(Cc1ccccc1Cl)S(=O)(=O)c1ccccc1[N+](=O)[O-])Nc1ccc(N2CCN(C(=O)Nc3c(Cl)cccc3Cl)CC2)cc1 [Compound 6] |
| 1100 nM | CCCCCCC(=O)Nc1ccc(N2CCN(C(=O)N(C)c3c(Cl)cccc3Cl)CC2)cc1 [Compound 10] |
| 29.5 nM | O=C(CCCc1ccccc1)Nc1ccc(N2CCN(C(=O)Nc3c(Cl)cc(OC(F)(F)F)cc3Cl)CC2)cc1 [Compound 13] |
| 4.57 nM | COc1ccc(CC(=O)Nc2ccc(N3CCN(C(=O)Nc4c(Cl)cc(OC)cc4Cl)CC3)cc2)cc1 [Compound 15] |
| 2240 nM | Cc1ccc(CC(=O)Nc2ccc(N3CCN(S(=O)(=O)c4ccccc4C)CC3)cc2)c(C)c1 [Compound 17] |
| 575 nM | C=CCNCC(=O)Nc1ccc(C2CCN(C(=O)Nc3c(Cl)cccc3Cl)CC2)cc1 [Compound 20] |
| 2570 nM | CC(CN)C(=O)Nc1ccc(C2CCN(C(=O)Nc3c(Cl)cccc3Cl)CC2)cc1 (stereo not drawn) [Compound 23] |
| 33.9 nM | O=C(CCCc1ccccc1)Nc1ccc(N2CCN(C(=O)Nc3c(Cl)cc(C(=O)O)cc3Cl)CC2)cc1 [Compound 27] |
| 490 nM | Cc1ccc(CC(=O)Nc2ccc(N3CCN(C(=O)Nc4cccc5ccccc45)CC3)cc2)c(C)c1 [Compound 38] |
| 17 nM | CC(C)(C)OC(=O)N1CCCC1CC(=O)Nc1ccc(C2CCN(C(=O)Nc3c(Cl)cccc3Cl)CC2)cc1 (stereo not drawn) [Compound 39] |
| 7.76 nM | CN(CC(=O)Nc1ccc(C2CCN(C(=O)Nc3c(Cl)cccc3Cl)CC2)cc1)C(=O)OC(C)(C)C [Compound 40] |
| 5130 nM | CC(=O)NCCC(=O)Nc1ccc(N2CCN(C(=O)Nc3c(Cl)cccc3Cl)CC2)cc1 [Compound 44] |
| 135 nM | COC(=O)c1cc(Cl)c(NC(=O)N2CCN(c3ccc(NC(=O)CCCc4ccccc4)cc3)CC2)c(Cl)c1 [Compound 47] |
| 35.5 nM | O=C(CCCc1ccccc1)Nc1ccc(N2CCN(C(=O)Cc3c(Cl)cccc3Cl)CC2)cc1 [Compound 52] |
| 46.8 nM | CC(=O)c1cc(Cl)c(NC(=O)N2CCN(c3ccc(NC(=O)CCCc4ccccc4)cc3)CC2)c(Cl)c1 [Compound 53] |
| 10.2 nM | CC(N)c1cc(Cl)c(NC(=O)N2CCN(c3ccc(NC(=O)CCCc4ccccc4)cc3)CC2)c(Cl)c1 (stereo not drawn) [Compound 55] |
| 10.7 nM | CC(NCCCO)c1cc(Cl)c(NC(=O)N2CCN(c3ccc(NC(=O)CCCc4ccccc4)cc3)CC2)c(Cl)c1 (stereo not drawn) [Compound 57] |
| 22.9 nM | COc1ccc(NC(=O)N2CCN(c3ccc(NC(=O)CCCc4ccccc4)cc3)CC2)c(C)c1 [Compound 65] |
| 138 nM | O=C(CCCc1ccccc1)Nc1ccc(N2CCN(C(=O)Nc3ccccc3C(F)(F)F)CC2)cc1 [Compound 70] |

| IC50 | SMILES |
| --- | --- |
| 490 nM | COC(=O)c1cccc(NC(=O)N2CCN(c3ccc(NC(=O)CCCc4ccccc4)cc3)CC2)c1C [Compound 72] |
| 174 nM | COc1ccc(NC(=O)N2CCN(c3ccc(NC(=O)CCCc4ccccc4)cc3)CC2)c([N+](=O)[O-])c1 [Compound 74] |
| 603 nM | COc1ccc(NC(=O)N2CCN(c3ccc(NC(=O)CCCc4ccccc4)cc3)CC2)c(OC)c1 [Compound 75] |
| 5620 nM | COc1ccc(C)cc1NC(=O)N1CCN(c2ccc(NC(=O)CCCc3ccccc3)cc2)CC1 [Compound 76] |
| 589 nM | O=C(CCCc1ccccc1)Nc1ccc(N2CCN(C(=O)Nc3ccccc3[N+](=O)[O-])CC2)cc1 [Compound 80] |
| 49 nM | Cc1cccc(NCC(=O)Nc2ccc(C3CCN(C(=O)Nc4c(Cl)cccc4Cl)CC3)cc2)c1 [Compound 97] |
| 50.1 nM | CC1CN(CC(=O)Nc2ccc(C3CCN(C(=O)Nc4c(Cl)cccc4Cl)CC3)cc2)CC(C)O1 (stereo not drawn) [Compound 98] |
| 25.7 nM | CCCCCCCN(C)CC(=O)Nc1ccc(C2CCN(C(=O)Nc3c(Cl)cccc3Cl)CC2)cc1 [Compound 99] |
| 87.1 nM | O=C(CNc1ccccc1)Nc1ccc(C2CCN(C(=O)Nc3c(Cl)cccc3Cl)CC2)cc1 [Compound 100] |
| 138 nM | CCOC(=O)c1ccc(N2CCCN(CC(=O)Nc3ccc(C4CCN(C(=O)Nc5c(Cl)cccc5Cl)CC4)cc3)CC2)cc1 [Compound 101] |
| 398 nM | O=C(CN1CCN(c2cccc(C(F)(F)F)c2)CC1)Nc1ccc(C2CCN(C(=O)Nc3c(Cl)cccc3Cl)CC2)cc1 [Compound 103] |
| 126 nM | Cc1ccc(C)c(N2CCN(CC(=O)Nc3ccc(C4CCN(C(=O)Nc5c(Cl)cccc5Cl)CC4)cc3)CC2)c1 [Compound 104] |
| 170 nM | Cc1cc(C)cc(N2CCN(CC(=O)Nc3ccc(C4CCN(C(=O)Nc5c(Cl)cccc5Cl)CC4)cc3)CC2)c1 [Compound 105] |
| 229 nM | CCc1cccc(N2CCN(CC(=O)Nc3ccc(C4CCN(C(=O)Nc5c(Cl)cccc5Cl)CC4)cc3)CC2)c1 [Compound 106] |
| 182 nM | O=C(CN1CCC(F)(F)CC1)Nc1ccc(C2CCN(C(=O)Nc3c(Cl)cccc3Cl)CC2)cc1 [Compound 107] |
| 251 nM | CC1(C)CCN(CC(=O)Nc2ccc(C3CCN(C(=O)Nc4c(Cl)cccc4Cl)CC3)cc2)CC1 [Compound 108] |
| 2340 nM | CN(C)CC(=O)Nc1ccc(C2CCN(C(=O)Nc3c(Cl)cccc3Cl)CC2)cc1 [Compound 109] |
| 1410 nM | COCCN(C)CC(=O)Nc1ccc(C2CCN(C(=O)Nc3c(Cl)cccc3Cl)CC2)cc1 [Compound 110] |
| 1200 nM | O=C(CN1CCOCC1)Nc1ccc(C2CCN(C(=O)Nc3c(Cl)cccc3Cl)CC2)cc1 [Compound 111] |
| 794 nM | O=C(CN1CCCCC1)Nc1ccc(C2CCN(C(=O)Nc3c(Cl)cccc3Cl)CC2)cc1 [Compound 112] |
| 204 nM | CCCCCCCNCC(=O)Nc1ccc(C2CCN(C(=O)Nc3c(Cl)cccc3Cl)CC2)cc1 [Compound 115] |
| 575 nM | O=C(CNCC1CC1)Nc1ccc(C2CCN(C(=O)Nc3c(Cl)cccc3Cl)CC2)cc1 [Compound 116] |
